In patent US7425579B2, “Methods for inhibiting activity of polyamine transporters” (Universite Laval, priority 1998, dated 2008):
Read-outs that look alike come from different tables or passages of the source.

What was measured:
[1] = tested on: mammalian polyamine carrier; assay: Determination of polyamine uptake activity: inhibition of diamine and polyamine transport in T-47D cells; format: cell-based, human; conditions: for Ki: mean±SD; for Km: substrate itself
Protocol: The rate of diamine and polyamine transport was determined in T-47D and ZR-75-1 cells incubated in serum-free RPMI 1640 medium as previously described (U.S. Pat. No. 6,083,496; Covassin et al. (1999) Bioorg. Med. Chem. Lett. 9, 1709-1714), using 20 μM [^3H]putrescine (179 Ci/mol), 5 μM [^3H]spermidine (246 Ci/mol) and 3 μM [^14C]spermine (300-400 mCi/mol) respectively, as substrates for a 20-min assay period. Uptake activity was expressed per amount of DNA as fluorometrically determined using 3,5-diaminobenzoic acid (Simard et al. (1990) Endocrinology 126, 3223-3231). Kinetic parameters of polyamine transport inhibition for the transport antagonists were determined by Lineweaver-Burke analysis of uptake activity in the presence of 0.1 μM [^3H]putrescine, 0.03 μM [^3H]spermidine, and 0.01 μM [^14C]spermine plus increasing concentrations of nonradioactive substrate. For competitive inhibitors, Ki values were estimated by iterative curve fitting for sigmoidal equations describing transport rates in the presence of increasing concentrations of antagonist, using the Cheng-Prusoff equation for competitive inhibition (U.S. Pat. No. 6,083,496).
The ability of BSD and BNSD compounds to inhibit uptake of the main natural substrates of the mammalian polyamine carrier, namely putrescine, spermidine and spermine, was evaluated using T-47D human breast cancer cells (Table 1).
Data are presented as the mean±SD of at least two independent determinations of IC50 values, each based on triplicate determinations of uptake velocity at increasing inhibitor concentrations.
The potency of the polyamines and their xylylated dimers as competitive inhibitors of spermidine transport was evaluated in the T-47D human breast cancer cell line (Table 2).

[2] = tested on: T-47D cells; assay: Reversal of DFMO-induced cytostasis by exogenous spermidine in T-47D cells; format: cell-based, human; conditions: T-47D cells with extracellular spermidine and DFMO
Protocol: FIGS. 6A, 6B, 6C and 6D are graph showing that antagonism of DFMO-induced cytostasis by exogenous spermidine depends on the polyamine and linker structure of the compounds used in a method according to a preferred embodiment of the invention. In particular, T-47D cells were grown for 8-9 d with the indicated concentrations of spermidine in medium containing 1 mM aminoguanidine, in the presence of DFMO (●), transport inhibitor (□), DFMO plus transport inhibitor (▪), or in the absence of either agent (∘), and total DNA content per culture was then determined. Panels A, B, C, and D describe the effect of BNSD-X, BSD-X, BNSD-3 and BSD-3, respectively. Data are presented as the mean±SD for triplicate cultures from one out of at least two identical experiments;
FIGS. 8A and 8B are graphs representing the time course of the effect of a compound used in a method according to a preferred embodiment of the invention on rescue of DFMO-induced cytostasis by exogenous spermidine. In particular, at time zero, T-47D (panel A) or CHO-K1 (panel B) were seeded at 1×10^4 or 5×10^3 cells/well, respectively, in medium containing 1 mM aminoguanidine, plus either 0.3 μM spermidine (Spd, ●), 2 mM DFMO (□), Spd+DFMO (▪), 50 μM (A) or 100 μM (B) BNSD-X (Δ), BNSD-X+Spd (▴), BNSD-X+DFMO (□), BNSD-X+Spd+DFMO (▾), or vehicle only (∘). At the indicated time, total DNA content/well was determined. Data are presented as the mean±SD for triplicate cultures from one representative experiment;
To determine the ability of polyamine transport antagonists to potentiate DFMO-induced inhibition of cell proliferation in the presence of exogenous polyamines, cells were grown for the indicated period in growth medium supplemented with 1 mM aminoguanidine, and either DFMO (1 to 5 mM), the indicated transport inhibitor (50 or 100 μM), or the combination thereof, as well as increasing concentrations of spermidine (0.1 to 300 μM). Fresh medium was added every other day, and cell mass was determined at various time points during the period of exponential growth, or at the end of the experimental period. For the latter experiments, the FBS supplement was replaced with dextran-coated charcoal-treated FBS (5%, v/v) plus 0.5 μg/ml insulin in the case of T-47D, ZR-75-1 and MCF-7 cells (U.S. Pat. No. 6,083,496).

[3] = tested on: CHO-K1 cells; assay: Determination of intracellular polyamine contents in CHO-K1 cells; format: cell-based, Chinese hamster
Protocol: At the indicated time, cells were harvested for the determination of putrescine (A), spermidine (B) and spermine contents (C). Data are presented as the mean±SD for triplicate cultures from one representative experiment; […] At the indicated time intervals, medium was removed, cell monolayers were rinsed twice: with 10 ml of ice-cold Ca^2+/Mg^2+-free phosphate-buffered saline (PBS) (2.7 mM KCl, 1.5 mM KH2PO4, 8.1 mM Na2HPO4, 137 mM NaCl), and cells were harvested by low-speed centrifugation (2400 g for 5 min at 4° C.). […] Polyamine content was then determined by ion-pair reverse phase HPLC with fluorometric detection after post-column derivatization with o-phthaldialdehyde as described (U.S. Pat. No. 6,083,496). […] Pat. No. 6,083,496).

[4] = tested on: MDA-MB-231 human breast cancer xenograft; assay: MDA-MB-231 human breast cancer xenograft in nude mice; format: in vivo, immunodeficient CD-1 mice; conditions: 39 d
Protocol: (§1) In particular, the mice have been treated with the following compounds: BNSD-X (1% w/v) (●), 0.3 (w/v) DFMO (□), 0.3% DFMO+BNSD-X (▪), 1% (w/v) DFMO (Δ), or 1% DFMO+BNSD-X (▴). Drugs were dissolved in drinking water which was given ad libitum to the animals. Control mice (∘) received distilled water only;
as §1, with “only; and” for “only;”
In particular, these compounds are BNSD-X (1% w/v), 0.3 (w/v) DFMO, 0.3% DFMO+BNSD-X, 1% (w/v) DFMO, or 1% DFMO+BNSD-X Drugs were dissolved in drinking water which was given ad libitum to the animals. Control mice received distilled water only.
For human xenograft experiments, athymic CD-1 mice were inoculated with 5×10^6 MDA-MB-231 human breast cancer cells (grown in tissue culture incubators to mid-exponential phase) in both sides of the inguinal mammary fat pad. After ˜2 weeks, when the tumor had reached a diameter ˜4 mm (as measured with a caliper), control mice were paired to treated ones in accordance with tumor volume (time zero). Animals were allowed free access to water containing 0, 0.3 or 1% DFMO (w/v), plus or minus 1% (w/v) BNSD-X (7 mice/experimental group). Tumor volume (V) was measured twice weekly with a caliper in 2 dimensions using the approximation V=(L×w^2)/2, where L is the length and w is the width of the xenograft (Bandyopadhyay et al., (2002) Cancer Res. 62:4690-4695). Animals were sacrificed after 39 d (i.e. when tumor size in control mice had reached about 500 mm^3). Mammary tumors were be excised and weighed.
The efficacy of BNSD-X as a chemotherapeutic agent was assessed in the MDA-MB-231 model of human breast cancer xenograft in the nude mouse, a model which is known to be sensitive to polyamine depletion by DFMO (Weeks et al., (2000) Exp Cell Res. 261:293-302). For that purpose, MDA-MB-231 cells were injected in the left and right mammary fat pads of immunodeficient CD-1 mice. Mice were then allowed to drink either BNSD-X at the optimal concentration (1%, w/v), as well as DFMO at either 0.3% or 1% (w/v) plus or minus 1% BNSD-X for 39 days before sacrificing the animals and measuring total final tumor mass (FIG. 12-14). The BNSD-X solution alone or with 0.3% DFMO led to a slight (˜7%) reduction of body weight, which was attenuated by the addition of 1% DFMO (FIG. 13) However, this effect of body weight could largely be accounted on the decreased tumor burden in the BNSD-X treated animals (FIG. 14). […]

[5] = T-47D breast cancer cells, read-out: Ki, inhibition of [3H]putrescine uptake
[6] = T-47D breast cancer cells, read-out: Ki, inhibition of [3H]spermidine uptake
[7] = T-47D breast cancer cells, read-out: Ki, inhibition of [14C]spermine uptake
[8] = T-47D human breast cancer cells, calculated from IC50, read-out: Ki for the inhibition of spermidine transport (Table 2)

Row | Structure (SMILES) | Ki [1, 5] | Ki [1, 6] | Ki [1, 7] | also measured
1 | NCCCN(CCCN)CCN(CCCN)CCCN [18a] | 1.2 ± 0.2 µM | 17.3 ± 1.4 µM | 20.4 ± 6.9 µM | 
2 | NCCCCN(CCCN)CCN(CCCN)CCCCN [18b] | 0.65 ± 0.07 µM | 3 ± 0.5 µM | 5.9 ± 1.1 µM | 
3 | NCCCCN(CCCN)CCCN(CCCN)CCCCN [19b] | 0.24 ± 0.03 µM | 1.7 ± 0.4 µM | 2.8 ± 0.6 µM | effect on spermidine-mediated reversal of DFMO-induced growth inhibition, T-47D [2]: significantly potentiated DFMO-induced cytostasis
4 | NCCCN(CCCN)CCCCN(CCCN)CCCN [20a] | 0.72 ± 0.2 µM | 4.9 ± 0.1 µM | 4.3 ± 0.7 µM | 
5 | NCCCCN(CCCN)CCCCN(CCCN)CCCCN [20b] | 0.52 ± 0.06 µM | 2.4 ± 0.4 µM | 6.2 ± 0.6 µM | 
6 | NCCCN(CCCN)CCCCCN(CCCN)CCCN [21a] | 0.54 ± 0.11 µM | 3.1 ± 0.5 µM | 2.6 ± 0.7 µM | 
7 | NCCCCN(CCCN)CCCCCN(CCCN)CCCCN [21b] | 0.57 ± 0.1 µM | 0.83 ± 0.08 µM | 8 ± 1.1 µM | 
8 | NCCCN(CCCN)CCCCCCN(CCCN)CCCN [22a] | 0.72 ± 0.18 µM | 2.4 ± 0.3 µM | 0.82 ± 0.1 µM | 
9 | NCCCCN(CCCN)CCCCCCN(CCCN)CCCCN [22b] | 0.91 ± 0.11 µM | 0.69 ± 0.16 µM | 6.3 ± 0.8 µM | 
10 | NCCCN(CCCN)CCCCCCCCN(CCCN)CCCN [23a] | 0.66 ± 0.06 µM | 7.5 ± 1.6 µM | 7 ± 1 µM | 
11 | NCCCCN(CCCN)CCCCCCCCN(CCCN)CCCCN [23b] | 0.44 ± 0.07 µM | 3 ± 0.2 µM | 3.6 ± 0.7 µM | 
12 | NCCCN(CCCN)CCCCCCCCCCN(CCCN)CCCN [24a] | 1.6 ± 0.4 µM | 1.5 ± 0.2 µM | 2.4 ± 0.7 µM | 
13 | NCCCCN(CCCN)CCCCCCCCCCN(CCCN)CCCCN [24b] | 0.14 ± 0.01 µM | 1.2 ± 0.2 µM | 1.9 ± 0.3 µM | 
14 | NCCCN(C/C=C/CN(CCCN)CCCN)CCCN [25a] | 0.1 ± 0.01 µM | 1.8 ± 0.1 µM | 1.5 ± 0.1 µM | 
15 | NCCCCN(C/C=C/CN(CCCN)CCCCN)CCCN [25b] | 0.27 ± 0.04 µM | 2 ± 0.5 µM | 1.6 ± 0.2 µM | 
16 | NCCCN(CC#CCN(CCCN)CCCN)CCCN [26a] | 2.6 ± 0.4 µM | 25.6 ± 4 µM | 12.8 ± 2.2 µM | 
17 | NCCCCN(CC#CCN(CCCN)CCCCN)CCCN [26b] | 1.9 ± 0.4 µM | 16.9 ± 2 µM | 27.7 ± 3.2 µM | 
18 | NCCCN(CCCN)Cc1cccc(CN(CCCN)CCCN)c1 [27a] | 0.64 ± 0.08 µM | 3 ± 0.5 µM | 5.7 ± 1.3 µM | 
19 | NCCCCN(CCCN)Cc1cccc(CN(CCCN)CCCCN)c1 [27b] | 0.19 ± 0.05 µM | 1.6 ± 0.1 µM | 2.4 ± 0.3 µM | 
20 | NCCCNCCCCN(CCCN)Cc1ccc(CN(CCCN)CCCCNCCCN)cc1 [BSM-X] |  |  |  | fold lower apparent Ki for spermidine uptake inhibition relative to the spermine monomer ([1]; T-47D cells): 2 fold; Ki [1, 8]: 1.1 ± 0.1 µM
21 | NCCCNCCCC(NCCCN)C(=O)NCCSSCCNC(=O)C(CCCNCCCN)NCCCN (centres unmarked) [DESC, 2,2′-dithiobis(N-ethyl-spermine-5-carboxamide), reference compound] | 3.1 ± 0.4 µM | 12.6 ± 1.4 µM | 15.9 ± 4 µM | 
22 | NCCC[C@](N)(C(=O)O)C(F)F [DFMO, α-difluoromethylornithine, reference compound] |  |  |  | decrease of the intracellular spermidine pool by DFMO alone ([3]; after a 24-h lag period, up to 4 days): 80%; effect on intracellular putrescine content ([3]; single agent): rapidly led to putrescine depletion; effect on intracellular spermine content ([3]; up to 4 days): little effect on spermine content; reduction of tumor burden ([4]; DFMO alone (0.3%)): 50±6%; growth inhibition (tumor) ([4]; DFMO alone (1%)): 73±7%
23 | NCCCCN [Putrescine, 1,4-diaminobutane, reference compound] |  |  |  | Km ([1]; T-47D breast cancer cells, read-out: Km for [3H]putrescine uptake): 7.4 ± 1.1 µM; Ki [1, 8]: > 500 µM
24 | NCCCNCCCCNCCCN [Spermine, reference compound] | 0.65 ± 0.12 µM | 0.92 ± 0.08 µM |  | Km ([1]; T-47D breast cancer cells, read-out: Km for [14C]spermine uptake): 2.7 ± 0.4 µM; Ki [1, 8]: 2.1 ± 0.2 µM
